The subject of one assay is KM12 cells. The experiment in a line: Proliferation of KM12 cells (CellTiter-Glo). Conditions: read-out: KM-12, IC50. The format is cell-based, human. From the text:
KM12 is a human colon cancer cell line in which NTRK1 is highly expressed, and gene fusion occurs with TPM3 to form TPM3-NTRK1. • [Test method]: Promega's CellTiter-Glo® Luminescent Cell Viability Assay kit was used to evaluate the inhibitory activity of the compounds on the proliferation of KM12 cells. • [Instrument]: Spectramax M3 multifunctional microplate reader from Molecular Devices. • [Test materials]: KM12 cell line (ATCC, item number CRL-12496), 96-well transparent flat-bottomed black-walled cell culture plate (Corning, item number #3603), RPMI-1640 media (GE, cat #SH30027.01), Fetal Bovine Serum FBS (Thermo Fisher, cat #10099-141), CellTiter-Glo® Luminescent Cell Viability Assay Kit (Promega, cat #G7572), PBS (Solarbio, cat #P1020), Trypsin (Thermo Fisher, cat #25200072), DMSO (Sigma, cat #D2650). • [Experimental procedure]: When resuscitating KM12 cells, the freezing tube was quickly shaken in a 37° C. water bath to melt within 1 minute. The thawed cell suspension was mixed uniformly with RPMI1640 medium containing 10% FBS, centrifuged at 1000 rpm for 5 minutes, and the supernatant discarded. 5 mL of complete medium (RPMI1640 medium with 10% FBS) was taken to resuspend the cell pellets, charged into a cell culture flask with a bottom area of 25 cm^2, and incubated in a cell incubator at 37° C., 95% humidity and 5% CO2. Cells were allowed to passage when the cell confluence rate reached about 80%. For cell passage, the old medium was discarded, and the cells were washed twice with PBS, and 0.5 mL trypsin was added to digest the cells. Upon dispersing into single cells and exfoliating from the bottom of the cell culture flask, 4.5 mL of new complete medium was added to terminate the digestion. After pipetting the cell suspension evenly, 1/5 of the cell suspension was kept and added with 4 mL of new complete medium, and after pipetting evenly, the cell flask was placed in the cell incubator for further culturing. Cell plating was performed when the cell confluence rate reached about 80% again. For cell plating, 1/5 of the cell suspension was kept for further culturing as in the cell passage method, and the remaining 4/5 of the cell suspension was placed in a 15 mL centrifuge tube, detected for cell viability by Trypan blue exclusion method to ensure that cell viability was above 90%. A cell suspension with a density of 3.33×10^4 viable cells/mL was prepared with complete medium, and 90 μL of such cell suspension was added to a 96-well cell culture plate to obtain a cell density of 3000 viable cells/mL in the cell culture plate. A control group containing no cells, no compound and only complete medium (i.e. culture medium control) and a control group containing no compound but containing cells (i.e. cell control) were set. The cell plate was placed in a cell incubator overnight.
The 10 mM compound stock solution in DMSO was first serially diluted with DMSO at a dilution factor of 3.16 times, to obtain 9 concentrations, and the 10th concentration was set as DMSO control without compound. Then, PBS was used to dilute the DMSO solutions of compounds of different concentrations, at a dilution factor of 100 times, so that the DMSO concentration in the compound solution of each concentration was 1%. Finally, 10 μL of each of the above solutions was added to the corresponding cell culture plate, so that the initial compound concentration was 10 μM, with the remaining concentrations being successively diluted at a dilution factor of 3.16 times, and the DMSO content in the cell culture plate was 0.1%.
The cell plate was placed in a cell incubator and cultured for 72 hours. For endpoint detection, the CellTiter-Glo reagent was melted, and the cell plate was moved to room temperature to equilibrate for 30 minutes, added with 100 μL of CellTiter-Glo for each well, and shaken on an orbital shaker for 5 minutes to fully lyse the cells. […]
A general note: Cellular ATP, detected with luciferase, serves as a proxy for viable cell number.

Assay [1] deals with Ba/F3 ETV6-NTRK3-G696C cells. Nature of the assay: Proliferation of Ba/F3 ETV6-NTRK3-G696C cells (CellTiter-Glo). Conditions: Mus musculus, BaF3, Table 7-2; separate test; read-out: Ba/F3 ETV6-NTRK3-G696C, IC50. The format is cell-based, mouse. From the text: Ba/F3 ETV6-NTRK3-G696C is a stable transgenic cell line constructed by KYinno Biotechnology Co., Ltd. on mouse primary B cell Ba/F3 wherein NTRK3 is highly expressed with a mutation of G at position […] to C and fused with ETV6 to form ETV6-NTRK3. • [Test method]: Promega's CellTiter-Glo® Luminescent Cell Viability Assay kit was used to evaluate the inhibitory activity of the compounds on the proliferation of Ba/F3 ETV6-NTRK3-G696C cells. • [Instrument]: Spectramax M3 multifunctional microplate reader from Molecular Devices. • [Test materials]: Ba/F3 ETV6-NTRK3-G696C cell line (constructed by KYinno Biotechnology Co., Ltd. (Beijing)), 96-well transparent flat-bottomed black-walled cell culture plate (Corning, cat #3603), RPMI-1640 media (GE, product number #SH30027.01), fetal bovine serum FBS (Thermo Fisher, cat #10099-141), CellTiter-Glo® Luminescent Cell Viability Assay kit (Promega, cat #G7572), PBS (Solarbio, cat #P1020), DMSO (Sigma, cat #D2650). • [Experimental procedure]: When resuscitating Ba/F3 ETV6-NTRK3-G696C cells, • the freezing tube was quickly shaken in a 37° C. water bath to melt within 1 minute. The thawed cell suspension was mixed uniformly with RPMI1640 medium containing 10% FBS, centrifuged at 1000 rpm for 5 minutes, and the supernatant discarded. 5 mL of complete medium (RPMI1640 medium with 10% FBS) was taken to resuspend the cell pellets, charged into a cell culture flask with a bottom area of 25 cm^2, and incubated in a cell incubator at 37° C., 95% humidity and 5% CO2. Cells were allowed to passage when the number of cells reached about 10^6 cells/mL. For cell passage, the old cell suspension was directly pipetted evenly, 1/5 of the cell suspension was kept, 4 mL of new complete medium was added, after pipetting evenly, the cell flask was placed in the cell incubator for further culturing. Cell plating was performed when the number of cells reached about 10^6 cells/mL again. For cell plating, 1/5 of the cell suspension was kept for further culturing as in the cell passage method, and the remaining 4/5 of the cell suspension was placed in a 15 mL centrifuge tube, detected for cell viability by Trypan blue exclusion method to ensure that cell viability was above 90%. A cell suspension with a density of 5.56×10^4 viable cells/mL was prepared with complete medium, and 90 μL of such cell suspension was added to a 96-well cell culture plate to obtain the cell density of 5000 viable cells/mL in the cell culture plate. A control group containing no cells, no compound and only complete medium (i.e. culture medium control) and a control group containing no compound but containing cells (i.e. cell control) were set. The cell plate was placed in a cell incubator overnight. The 10 mM compound stock solution in DMSO was first serially diluted with DMSO at a dilution factor of 3.16 times, to obtain 9 concentrations, and the 10th concentration was set as DMSO control without compound. Then, PBS was used to dilute the DMSO solutions of compounds of different concentrations, at a dilution factor of 100 times, so that the DMSO concentration in the compound solution of each concentration was 1%. Finally, 10 μL of each of the above solutions was added to the corresponding cell culture plate, so that the initial compound concentration was 10 μM, with the remaining concentrations being successively diluted at a dilution factor of 3.16 times, and the DMSO content in the cell culture plate was 0.1%. The cell plate was placed in a cell incubator and cultured for 72 hours. For endpoint detection, the CellTiter-Glo reagent was melted, and the cell plate was moved to room temperature to equilibrate for 30 minutes, added with 100 μL of CellTiter-Glo for each well, and shaken on an orbital shaker for 5 minutes to fully lyse the cells. […]

Another assay deals with MKN45 cells. The experiment in a line: Proliferation of MKN45 cells. The format is cell-based. The note with it: Homo sapiens, MKN-45; Table 8. The method, then:
MKN45 is a human poorly differentiated gastric cancer cell line with high MET expression. Cell proliferation experiments were performed according to literature methods (Zhang, D. et al. Bioorg. Med. Chem. 2013, 21, 6804; Riss, T. L.; Moravec, R. A.; Niles, A. L.; et al. Cell Viability Assays 2013 May 1 [Updated 2016 Jul. 1]. In: Sittampalam, G. S.; Grossman, A.; Brimacombe, K.; et al., editors. Assay Guidance Manual [Internet]. Bethesda (MD): Eli Lilly & Company and the National Center for Advancing Translational Sciences; 2004-. Available from: https://www.ncbi.nlm.nih.gov/books/NBK144065/).

The mark [2] stands for this setting: Homo sapiens, KM12, Table 1-2, separate test.

Read-outs that look alike come from different tables or passages of the source.

For the compound `N.N.[Cl][Pt][Cl]` [Cisplatin, reference compound], in the assay on KM12 cells (Table 1, 72 hours), the IC50 was 27300 nM. With `Cn1ncc2cc(Oc3ccc(NC(=O)c4ccc(OCC(F)(F)F)n(-c5ccc(F)cc5)c4=O)cc3F)c(-c3cn[nH]c3)cc21` [Example 17, N-(3-fluoro-4-(1-methyl-6-(1H-pyrazol-4-yl)-1H-indazol-5-yloxy)phenyl)-1-(4-fluorophenyl)-6-(2,2,2-trifluoroethoxy)-2-oxo-1,2-dihydropyidine-3-carboxamide], the IC50 in the assay with KM12 cells (setting [2]) came out at 19 nM; in assay [1], 3.7 nM; in the assay on MKN45 cells, 15 nM. For `CCn1ncc2cc(Oc3ccc(NC(=O)c4ccc(OC5CC5)n(-c5ccc(F)cc5)c4=O)cc3F)c(-c3cn[nH]c3)cc21` [Example 25, N-(3-fluoro-4-(1-ethyl-6-(1H-pyrazol-4-yl)-1H-indazol-5-yloxy)phenyl)-1-(4-fluorophenyl)-6-cyclopropoxy-2-oxo-1,2-dihydropyridine-3-carboxamide], the IC50 in the assay with KM12 cells (setting [2]) came to 29 nM; in assay [1], 6.3 nM. Consider `CCn1ncc2cc(Oc3ccc(NC(=O)c4ccc(OCC(F)(F)F)n(-c5ccc(F)cc5)c4=O)cc3F)c(-c3cn[nH]c3)cc21` [Example 27, N-(3-fluoro-4-(1-ethyl-6-(1H-pyrazol-4-yl)-1H-indazol-5-yloxy)phenyl)-1-(4-fluorophenyl)-6-(2,2,2-trifluoroethoxy)-2-oxo-1,2-dihydropyidine-3-carboxamide], for which the IC50 in assay [1] was 3 nM. On to `CN1CCN(c2ccc(C(=O)Nc3n[nH]c4ccc(Cc5cc(F)cc(F)c5)cc34)c(NC3CCOCC3)c2)CC1` [RXDX-101, reference compound], for which the IC50 in the assay with KM12 cells (Homo sapiens, KM12, 72 h, Table 1, 72 hours) stood at 5.1 nM.
